ChEMBL document CHEMBL4359815, “Design, synthesis, antitumor activities and biological studies of novel diaryl substituted fused heterocycles as dual ligands targeting tubulin and katanin” (Eur J Med Chem, 2019)
Activity calls are given as the source filed them. The rule behind the calls is not given here.

Columns and labels:
HUVEC [1] = assay: Antiangiogenic activity in HUVEC assessed as inhibition of capillary like tube formation in matrigel at 0.4 uM after 24 hrs by matrigel-based inverted microscopic analysis relative to control; format: functional; details: Homo sapiens
A549 [2] = assay: Antiproliferative activity against human A549 cells harboring control siRNA after 48 hrs by MTT assay; format: functional, cell-based; details: A549, 48 h
A549 [3] = assay: Induction of apoptosis in human A549 cells assessed as necrotic cells at 1 uM after 48 hrs by Annexin-V/propidium iodide staining based flow cytometric method (reference value: 6.26%); format: functional
A549 [4] = assay: Induction of apoptosis in human A549 cells assessed as viable cells at 2 uM after 48 hrs by Annexin-V/propidium iodide staining based flow cytometric method (reference value: 92.05%); format: functional; details: A549, 48 h, read-out: Activity
[5] = Apparent volume of distribution in ICR mouse at 50 mg/kg, ip after 0.08 to 24 hrs by HPLC-MS/MS analysis; format: ADME, organism-based; details: in vivo
HeLa = assay: Antiproliferative activity against human HeLa cells assessed as reduction in cell viability after 48 hrs by MTT assay; format: functional, cell-based
A2780 [6] = assay: Antiproliferative activity against human A2780 cells assessed as reduction in cell viability after 48 hrs by MTT assay; format: functional, cell-based; details: A2780, 48 h
A549 [7] = assay: Induction of apoptosis in human A549 cells after 48 hrs by Annexin-V/propidium iodide staining based flow cytometric method; format: functional, cell-based
A549 [8] = assay: Induction of apoptosis in human A549 cells assessed as necrotic cells at 0.5 uM after 48 hrs by Annexin-V/propidium iodide staining based flow cytometric method (reference value: 6.26%); format: functional
Tubulin = Tubulin (Sus scrofa, UniProt P02554+P02550); assay: (§1) Inhibition of pig brain tubulin polymerization measured every 1 min for 25 mins by spectrophotometric method
Tubulin (Sus scrofa) = Tubulin (Sus scrofa) (UniProt P02554+P02550); assay: as §1
Tubulin (Sus scrofa), sequence (P02550 whole entry, looked up): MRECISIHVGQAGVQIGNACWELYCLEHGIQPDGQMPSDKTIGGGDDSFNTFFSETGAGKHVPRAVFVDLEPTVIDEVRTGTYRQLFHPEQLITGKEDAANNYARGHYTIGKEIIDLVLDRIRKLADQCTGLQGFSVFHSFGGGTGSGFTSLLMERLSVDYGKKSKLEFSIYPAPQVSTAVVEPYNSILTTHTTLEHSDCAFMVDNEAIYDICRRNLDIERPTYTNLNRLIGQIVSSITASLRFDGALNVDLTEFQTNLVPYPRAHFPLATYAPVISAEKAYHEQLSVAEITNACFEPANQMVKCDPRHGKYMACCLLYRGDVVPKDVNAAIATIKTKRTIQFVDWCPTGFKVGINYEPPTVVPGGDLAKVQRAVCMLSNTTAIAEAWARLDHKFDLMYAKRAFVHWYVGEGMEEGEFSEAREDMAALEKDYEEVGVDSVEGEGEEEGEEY
Tubulin (Sus scrofa), sequence (P02554 whole entry, looked up): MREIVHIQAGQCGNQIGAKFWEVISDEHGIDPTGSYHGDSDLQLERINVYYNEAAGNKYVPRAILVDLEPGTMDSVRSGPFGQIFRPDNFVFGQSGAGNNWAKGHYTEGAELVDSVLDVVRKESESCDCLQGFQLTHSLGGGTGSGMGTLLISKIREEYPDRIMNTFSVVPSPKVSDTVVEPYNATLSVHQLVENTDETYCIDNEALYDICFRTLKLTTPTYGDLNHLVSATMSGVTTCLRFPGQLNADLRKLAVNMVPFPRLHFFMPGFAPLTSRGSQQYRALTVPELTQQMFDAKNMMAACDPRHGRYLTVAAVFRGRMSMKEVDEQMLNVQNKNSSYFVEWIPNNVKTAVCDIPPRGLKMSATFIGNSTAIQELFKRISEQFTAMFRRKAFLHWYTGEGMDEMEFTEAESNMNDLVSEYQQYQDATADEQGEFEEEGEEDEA

A549 [9] = assay: Induction of apoptosis in human A549 cells assessed as increase in Bad expression level at 2 to 8 uM after 48 hrs by immunoblotting analysis; format: functional, cell-based
A549 [10] = assay: Induction of apoptosis in human A549 cells assessed as early apoptotic cells at 2 uM after 48 hrs by Annexin-V/propidium iodide staining based flow cytometric method (reference value: 0.51%); format: functional
[11] = AUC(0 to infinity) in ICR mouse at 50 mg/kg, ip after 0.08 to 24 hrs by HPLC-MS/MS analysis; format: ADME, organism-based; parameters: dose 50 mg/kg, time infinity, route intraperitoneal; details: in vivo
[12] = molecular target: Katanin p60 ATPase-containing subunit A1 (Homo sapiens) (UniProt O75449); assay: Inhibition of Katanin p60 degradation in human A549 cells preincubated for 15 mins followed by compound addition in presence of cycloheximide by immunoblotting analysis; format: cell-based
Katanin p60 ATPase-containing subunit A1 (Homo sapiens), sequence (O75449 whole entry): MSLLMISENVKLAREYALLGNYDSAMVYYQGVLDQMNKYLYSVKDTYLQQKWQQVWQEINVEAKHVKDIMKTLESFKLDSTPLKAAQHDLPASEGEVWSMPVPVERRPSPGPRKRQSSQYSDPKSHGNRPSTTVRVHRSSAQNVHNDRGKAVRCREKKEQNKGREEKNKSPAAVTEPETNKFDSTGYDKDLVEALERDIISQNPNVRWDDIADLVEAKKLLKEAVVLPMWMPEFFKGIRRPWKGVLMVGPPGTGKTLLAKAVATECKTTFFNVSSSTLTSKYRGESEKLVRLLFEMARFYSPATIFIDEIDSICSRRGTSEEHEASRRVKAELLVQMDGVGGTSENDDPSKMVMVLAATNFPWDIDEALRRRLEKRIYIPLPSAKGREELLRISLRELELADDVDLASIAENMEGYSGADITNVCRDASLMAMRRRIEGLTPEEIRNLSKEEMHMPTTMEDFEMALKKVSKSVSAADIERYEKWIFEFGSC

A549 [13] = assay: Cell cycle arrest in human A549 cells assessed as accumulation of cells at G2/M phase at 0.5 to 2 uM after 24 hrs by RNase A/propidium iodide staining-based flow cytometric analysis; format: functional
A549 [14] = assay: Cell cycle arrest in human A549 cells assessed as increase in p21 expression at 0.5 to 2 uM after 24 hrs by immunoblotting analysis; format: functional, cell-based
Tubulin (Homo sapiens) = Tubulin (Homo sapiens) (UniProt P68371+Q9H4B7+P0DPH7+P68366+Q13509+Q71U36+P04350+Q3ZCM7+P07437+P68363+Q9BQE3+Q6PEY2+Q13885+Q9BVA1+Q9BUF5); assay: Induction of tubulin depolymerization in human HeLa cells after 24 hrs by DAPI staining based fluorescence microscopic analysis; format: cell-based
A549 [15] = assay: Induction of apoptosis in human A549 cells assessed as late apoptotic cells at 0.5 uM after 48 hrs by Annexin-V/propidium iodide staining based flow cytometric method (reference value: 1.18%); format: functional
A549 [16] = assay: Antiproliferative activity against human A549 cells harboring katanin siRNA after 48 hrs by MTT assay; format: functional, cell-based; details: A549, 48 h
A549 [17] = assay: Induction of apoptosis in human A549 cells assessed as late apoptotic cells at 2 uM after 48 hrs by Annexin-V/propidium iodide staining based flow cytometric method (reference value: 1.18%); format: functional
A549 [18] = assay: Induction of apoptosis in human A549 cells assessed as necrotic cells at 2 uM after 48 hrs by Annexin-V/propidium iodide staining based flow cytometric method (reference value: 6.26%); format: functional
A549 [19] = assay: Induction of apoptosis in human A549 cells assessed as viable cells at 0.5 uM after 48 hrs by Annexin-V/propidium iodide staining based flow cytometric method (reference value: 92.05%); format: functional; details: A549, 48 h, read-out: Activity
A549 [20] = assay: Inhibition of colony formation in human A549 cells after 48 hrs by crystal violet staining based assay; format: functional, cell-based
A549 [21] = assay: Induction of apoptosis in human A549 cells assessed as late apoptotic cells at 1 uM after 48 hrs by Annexin-V/propidium iodide staining based flow cytometric method (reference value: 1.18%); format: functional
A549 [22] = assay: Cell cycle arrest in human A549 cells assessed as increase in cyclin B1 expression at 0.5 to 2 uM after 24 hrs by immunoblotting analysis; format: functional, cell-based
[23] = Binding affinity to human katanin by MST assay
A549 [24] = assay: Induction of apoptosis in human A549 cells assessed as early apoptotic cells at 0.5 uM after 48 hrs by Annexin-V/propidium iodide staining based flow cytometric method (reference value: 0.51%); format: functional
[25] = Tmax in ICR mouse at 50 mg/kg, ip after 0.08 to 24 hrs by HPLC-MS/MS analysis; format: ADME, organism-based; details: in vivo
HUVEC [26] = assay: Antiangiogenic activity in HUVEC assessed as inhibition of capillary like tube formation in matrigel at 0.2 uM after 24 hrs by matrigel-based inverted microscopic analysis; format: functional, cell-based; details: Homo sapiens
A549 [27] = assay: Induction of apoptosis in human A549 cells assessed as PARP cleavage at 2 to 8 uM after 48 hrs by immunoblotting analysis; format: functional, cell-based
[28] = Toxicity in Balb/c mouse xenografted with human A2780 cells assessed effect on body weight at 25 to 50 mg/kg, ip administered every other day; format: organism-based; details: in vivo
[29] = Apparent oral clearance ICR mouse at 50 mg/kg, ip after 0.08 to 24 hrs by HPLC-MS/MS analysis; format: ADME, organism-based; details: in vivo
A549 [30] = assay: Cell cycle arrest in human A549 cells after 24 hrs by RNase A/propidium iodide staining-based flow cytometric analysis; format: functional
A549 [31] = assay: Induction of apoptosis in human A549 cells assessed as early apoptotic cells at 1 uM after 48 hrs by Annexin-V/propidium iodide staining based flow cytometric method (reference value: 0.51%); format: functional
[32] = MRT in ICR mouse at 50 mg/kg, ip after 0.08 to 24 hrs by HPLC-MS/MS analysis; format: ADME, organism-based; details: in vivo
A2780 [33] = assay: Antitumour activity against human A2780 cells xenografted in Balb/c mouse assessed as reduction in tumour weight at 25 to 50 mg/kg, ip administered every other day; format: functional, organism-based
A549 [34] = assay: Induction of apoptosis in human A549 cells assessed as increase in p53 expression level at 2 to 8 uM after 48 hrs by immunoblotting analysis; format: functional, cell-based
A549 [35] = assay: Induction of apoptosis in human A549 cells assessed as viable cells at 1 uM after 48 hrs by Annexin-V/propidium iodide staining based flow cytometric method (reference value: 92.05%); format: functional; details: A549, 48 h, read-out: Activity
[36] = Cmax in ICR mouse at 50 mg/kg, ip after 0.08 to 24 hrs by HPLC-MS/MS analysis; format: ADME, organism-based; parameters: dose 50 mg/kg, route intraperitoneal; details: in vivo
HUVEC [37] = assay: Cytotoxicity against HUVEC after 48 hrs by MTT assay; format: cell-based; details: Homo sapiens
A549 [38] = assay: Cell cycle arrest in human A549 cells assessed as increase in histone 3 phosphorylation at 0.5 to 2 uM after 24 hrs by immunoblotting analysis; format: functional, cell-based
A2780 [39] = assay: Antitumour activity against human A2780 cells xenografted in Balb/c mouse assessed as reduction in tumour volume at 25 to 50 mg/kg, ip administered every other day by caliper method; format: functional, organism-based
[40] = AUC (0 to 24 hrs) in ICR mouse at 50 mg/kg, ip after 0.08 to 24 hrs by HPLC-MS/MS analysis; format: ADME, organism-based; parameters: time < 24 hr, dose 50 mg/kg, route intraperitoneal; details: in vivo
[41] = Half life in ICR mouse at 50 mg/kg, ip after 0.08 to 24 hrs by HPLC-MS/MS analysis; format: ADME, organism-based; details: in vivo
HCT-116 = assay: Antiproliferative activity against human HCT116 cells assessed as reduction in cell viability after 48 hrs by MTT assay; format: functional, cell-based; details: HCT-116, 48 h
A549 [42] = assay: Antiproliferative activity against human A549 cells assessed as reduction in cell viability after 48 hrs by MTT assay; format: functional, cell-based; details: A549, 48 h

For `COc1ccc(-c2cc3c([nH]c(=O)n3-c3cc(OC)c(OC)c(OC)c3)c(C(N)=O)n2)cc1O`, the inhibition at 0.4 µM (HUVEC [1]) was 100%, the IC50 (A549 [2]) was 340 nM and the Activity (A549 [3]) was 10.33%. It also gave a viability at 2 µM (A549 [4]) of 42.2%, a Vd/F [5] of 4625.07 mL and an IC50 (HeLa) of 250 nM. For the same molecule, the IC50 (A2780 [6]) was 210 nM, the Activity (A549 [7]) was “Dose-dependent effect” and the Activity (A549 [8]) was 7.34%. For the same molecule, the IC50 (Tubulin) was 8400 nM, the inhibition (Tubulin (Sus scrofa)) was “Dose-dependent effect” and the Activity (A549 [9]) was “Active”. For the same molecule, the Activity (A549 [10]) was 36.48%, the AUC(0-inf) [11] was 2950 ng·h/mL and the inhibition [12] was “inactive”. For the same molecule, the inhibition (A549 [13]) was “Active”, the Activity (A549 [14]) was “Active” and the Activity (Tubulin (Homo sapiens)) was “Dose-dependent effect”. It also gave an Activity (A549 [15]) of 5.43%, an IC50 (A549 [16]) of 1480 nM and an Activity (A549 [17]) of 14.08%. The Activity (A549 [18]) was 7.2%, the viability at 0.5 µM (A549 [19]) was 79.7% and the inhibition (A549 [20]) was “Dose-dependent effect”. For the same molecule, the Activity (A549 [21]) was 8.69%, the Activity (A549 [22]) was “Active” and the Kd [23] was 12700 nM. For the same molecule, the Activity (A549 [24]) was 7.51%, the Tmax [25] was 0.23 h and the inhibition (HUVEC [26]) was “Active”. The Activity (A549 [27]) was “Active”, the Activity [28] was “Non-Toxic” and the CL/F [29] was 5.73 mL/min. The inhibition (A549 [30]) was “Dose-dependent effect”, the Activity (A549 [31]) was 15.85% and the MRT [32] was 8.39 h. For the same molecule, the Activity (A2780 [33]) was “Active”, the Activity (A549 [34]) was “Active” and the viability at 1 µM (A549 [35]) was 65.1%. For the same molecule, the Cmax [36] was 580 ng/mL, the IC50 (HUVEC [37]) was > 10000 nM and the Activity (A549 [38]) was “Active”. For the same molecule, the Activity (A2780 [39]) was “Active”, the AUC(0-t) at 24 h [40] was 2630 ng·h/mL and the half-life [41] was 9.36 h. It also gave an IC50 (HCT-116) of 170 nM and an IC50 (A549 [42]) of 400 nM.
